Type in all cases: in vivo
Test [1] relates to Alopecurus myosuroides (ALOMY). The experiment in a line: Glasshouse assay for herbicidal activity, pre-/post-emergence (percentage phytotoxicity). The following applies: Alopecurus myosuroides, Rate 250 g/ha, 100%=total damage, 0%=no damage. The procedure, abridged: (§1)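 Visual score (0–100% damage) at 15DAA post-em / 20DAA pre-em. Pots, std soil; treated 1 d (pre) or ~12 d (post) after sowing. 24/18 °C warm spp., 20/16 °C cool spp., 16 h light, 65% RH.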

Test [2] deals with Avena fatua (AVEFA). The test is described as above. The following applies: Avena fatua, Rate 250 g/ha, 100%=total damage, 0%=no damage. Summed up: as §1
Test [3] concerns Echinochloa crus-galli (ECHCG). Described as above. The settings on record: Echinochloa crus-galli, Rate 250 g/ha, 100%=total damage, 0%=no damage. The procedure, abridged:
as §1

For test [4], the system named is Lolium perenne (LOLPE). The description is as above. The following applies: Lolium perenne, Rate 250 g/ha, 100%=total damage, 0%=no damage. Summed up: as §1
The test system of test [5] is wheat. Put plainly: Post-emergence herbicidal activity against cereal crops (wheat) +/- safener, crop selectivity. The settings on record: 100%=total damage to plant, 0%=no damage; for Post-emergence herbicidal activity against wheat (percentage phytotoxicity), +CQC: 250 g/ha, plus safener cloquintocet-mexyl (CQC) applied at 50 g/ha; for percent phytotoxicity (crop damage) to wheat at 250 g/ha: Triticum aestivum, 360 h, without safener, read-out: Post-emergence herbicidal activity against wheat (percentage phytotoxicity), Wheat - CQC. Summed up:
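Test plants raised in pots in a glasshouse (24/18 °C warm or 20/16 °C cool species day/night, 16 h light, 65% humidity) and treated post-emergence about 12 days after sowing. Visual percentage phytotoxicity scored 15 days after application (0% = no damage, 100% = total damage).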

Where [6] appears, read: 360 h, post-emergence, visual assessment 15 DAA, read-out: Post-emergence herbicidal activity (percentage phytotoxicity), ALOMY POST.
The mark [7] stands for this setting: 480 h, pre-emergence, visual assessment 20 DAA, read-out: Pre-emergence herbicidal activity (percentage phytotoxicity), ALOMY PRE.
The mark [8] stands for this setting: post-emergence, 360 h, post-emergence, visual assessment 15 DAA, read-out: Post-emergence herbicidal activity (percentage phytotoxicity), AVEFA POST.
Where [9] appears, read: pre-emergence, 480 h, pre-emergence, visual assessment 20 DAA, read-out: Pre-emergence herbicidal activity (percentage phytotoxicity), AVEFA PRE.
The mark [10] stands for this setting: post-emergence, 360 h, post-emergence, visual assessment 15 DAA, read-out: Post-emergence herbicidal activity (percentage phytotoxicity), ECHCG POST.
The mark [11] stands for this setting: pre-emergence, 480 h, pre-emergence, visual assessment 20 DAA, read-out: Pre-emergence herbicidal activity (percentage phytotoxicity), ECHCG PRE.
Setting [12] is: post-emergence, 360 h, post-emergence, visual assessment 15 DAA, read-out: Post-emergence herbicidal activity (percentage phytotoxicity), LOLPE POST.
Where [13] appears, read: pre-emergence, 480 h, pre-emergence, visual assessment 20 DAA, read-out: Pre-emergence herbicidal activity (percentage phytotoxicity), LOLPE PRE.

12 compounds from US10301295B2, “Herbicidal compounds” (Syngenta Participations AG, priority 2014, dated 2019) can be followed below.

Read-outs that look alike come from different tables or passages of the source.

With `Cc1cc(C)c(C2C(=O)CC(CCNC(=O)NC(=O)c3ccc(F)c(F)c3)C2=O)c(C)c1` (stereo not drawn) [Compound A56], the pest or weed control at 250 g/ha in test [1] (setting [6]) came to 80%; in test [1] (setting [7]), 70%; in test [2] (setting [8]), 80%; in test [2] (setting [9]) it was 40%; in test [3] (setting [10]) it was 80%; in test [3] (setting [11]), 60%. Further, the pest or weed control at 250 g/ha in test [4] (setting [12]) was determined as 90%; in test [4] (setting [13]), 80%. Moreover, the “Post-emergence herbicidal activity against wheat (percentage phytotoxicity), +CQC” value in test [5] is given as 70%. The percent phytotoxicity (crop damage) to wheat at 250 g/ha in test [5] amounted to 80%.

Take `Cc1cc(C)c(C2C(=O)CC(CCNC(=O)NC(=O)c3ccc(Cl)cc3)C2=O)c(C)c1` (stereo not drawn) [Compound A51]: the pest or weed control at 250 g/ha in test [1] (setting [6]) amounted to 90%; in test [1] (setting [7]) it was 70%; in test [2] (setting [8]), 80%; in test [2] (setting [9]), 30%; in test [3] (setting [10]), 90%; in test [3] (setting [11]), 90%. For the same compound, the values for the pest or weed control at 250 g/ha in test [4] (setting [12]) and in test [4] (setting [13]) were 90% and 60%, respectively. Further, the “Post-emergence herbicidal activity against wheat (percentage phytotoxicity), +CQC” value in test [5] worked out at 80%. The percent phytotoxicity (crop damage) to wheat at 250 g/ha in test [5] amounted to 80%.

For the compound `Cc1cc(-n2cc(Cl)cn2)cc(C)c1C1C(=O)CC(CCNC(=O)Nc2ccc(F)cn2)C1=O` (stereo not drawn) [Compound A28], the pest or weed control at 250 g/ha in test [1] (setting [6]) is 90%; in test [1] (setting [7]), 70%; in test [2] (setting [8]), 100%; in test [2] (setting [9]), 70%; in test [3] (setting [10]), 90%; in test [3] (setting [11]) it was 90%. The pest or weed control at 250 g/ha turned out to be 80% in test [4] (setting [12]) and 70% in test [4] (setting [13]). Further, the “Post-emergence herbicidal activity against wheat (percentage phytotoxicity), +CQC” value in test [5] is given as 20%. Further, in test [5], the percent phytotoxicity (crop damage) to wheat at 250 g/ha is 80%.

Turning to `Cc1cc(C)c(C2C(=O)CC(CCNS(=O)(=O)c3ccccc3F)C2=O)c(C)c1` (stereo not drawn) [Compound A76], the pest or weed control at 250 g/ha came out at 20% in test [1] (setting [6]); 30% in test [1] (setting [7]); 20% in test [2] (setting [8]); 0% in test [2] (setting [9]); 40% in test [3] (setting [10]); 40% in test [3] (setting [11]). The pest or weed control at 250 g/ha was determined as 60% in test [4] (setting [12]) and 70% in test [4] (setting [13]). Moreover, the “Post-emergence herbicidal activity against wheat (percentage phytotoxicity), +CQC” value in test [5] is reported as 0%. Moreover, the percent phytotoxicity (crop damage) to wheat at 250 g/ha in test [5] came to 0%.

With `Cc1cc(C)c(C2C(=O)CC(CCNS(=O)(=O)c3ccc(Cl)cc3)C2=O)c(C)c1` (stereo not drawn) [Compound A81], the pest or weed control at 250 g/ha in test [1] (setting [6]) was found to be 60%; in test [1] (setting [7]), 60%; in test [2] (setting [8]), 70%; in test [2] (setting [9]), 70%; in test [3] (setting [10]) it was 60%; in test [3] (setting [11]), 70%. The pest or weed control at 250 g/ha in test [4] (setting [12]) came to 60%; in test [4] (setting [13]), 70%. The “Post-emergence herbicidal activity against wheat (percentage phytotoxicity), +CQC” value in test [5] is on record as 0%. The percent phytotoxicity (crop damage) to wheat at 250 g/ha in test [5] turned out to be 0%.

Turning to `Cc1cc(C)c(C2C(=O)CC(CCNC(=S)Nc3ccccc3)C2=O)c(C)c1` (stereo not drawn) [Compound A90, 1-[2-[2,4-dioxo-3-(2,4,6-trimethylphenyl)cyclopentyl]ethyl]-3-phenyl-thiourea], the pest or weed control at 250 g/ha was found to be 20% in test [1] (setting [6]); 0% in test [1] (setting [7]); 60% in test [2] (setting [8]); 0% in test [2] (setting [9]); 60% in test [3] (setting [10]); 40% in test [3] (setting [11]). Besides, the pest or weed control at 250 g/ha in test [4] (setting [12]) turned out to be 20%; in test [4] (setting [13]), 70%. The “Post-emergence herbicidal activity against wheat (percentage phytotoxicity), +CQC” value in test [5] is 20%. For the same compound, the percent phytotoxicity (crop damage) to wheat at 250 g/ha in test [5] stood at 0%.

In the case of `Cc1cc(-n2cc(Cl)cn2)cc(C)c1C1C(=O)CC(CCNC(=O)Nc2ccccn2)C1=O.Cl` (stereo not drawn) [Compound A13], the pest or weed control at 250 g/ha in test [1] (setting [6]) worked out at 90%; in test [1] (setting [7]) it was 70%; in test [2] (setting [8]), 100%; in test [2] (setting [9]), 40%; in test [3] (setting [10]), 100%; in test [3] (setting [11]), 90%. Besides, the pest or weed control at 250 g/ha in test [4] (setting [12]) is 70%; in test [4] (setting [13]) it was 50%. Besides, in test [5], the “Post-emergence herbicidal activity against wheat (percentage phytotoxicity), +CQC” value is reported as 40%. Moreover, the percent phytotoxicity (crop damage) to wheat at 250 g/ha in test [5] was 70%.

Regarding `Cc1cc(C)c(C2C(=O)CC(CCNc3ccc(C(F)(F)F)cn3)C2=O)c(C)c1` (stereo not drawn) [Compound A34], the pest or weed control at 250 g/ha worked out at 90% in test [1] (setting [6]); 90% in test [1] (setting [7]); 90% in test [2] (setting [8]); 80% in test [2] (setting [9]); 100% in test [3] (setting [10]); 100% in test [3] (setting [11]). In addition, the figures for the pest or weed control at 250 g/ha in test [4] (setting [12]) and in test [4] (setting [13]) were 90% and 100%, respectively. The “Post-emergence herbicidal activity against wheat (percentage phytotoxicity), +CQC” value in test [5] is on record as 70%. In test [5], the percent phytotoxicity (crop damage) to wheat at 250 g/ha was determined as 80%.

Turning to `CON=C(C#N)C(=O)NCCC1CC(=O)C(c2c(C)cc(-n3cc(Cl)cn3)cc2C)C1=O` (stereo not drawn) [Compound A42], the pest or weed control at 250 g/ha in test [1] (setting [6]) amounted to 0%; in test [1] (setting [7]), 0%; in test [2] (setting [8]), 0%; in test [2] (setting [9]), 0%; in test [3] (setting [10]), 70%; in test [3] (setting [11]), 0%. Further, the pest or weed control at 250 g/ha amounted to 10% in test [4] (setting [12]) and 0% in test [4] (setting [13]). Besides, the “Post-emergence herbicidal activity against wheat (percentage phytotoxicity), +CQC” value in test [5] is 10%. Besides, in test [5], the percent phytotoxicity (crop damage) to wheat at 250 g/ha came to 0%.

Turning to `Cc1cc(C)c(C2C(=O)CC(CCNC(=O)Nc3ccccc3)C2=O)c(C)c1` (stereo not drawn) [Compound A9, 1-[2-[2,4-dioxo-3-(2,4,6-trimethylphenyl)cyclopentyl]ethyl]-3-phenyl-urea], the pest or weed control at 250 g/ha amounted to 30% in test [1] (setting [6]); 60% in test [1] (setting [7]); 80% in test [2] (setting [8]); 60% in test [2] (setting [9]); 80% in test [3] (setting [10]); 80% in test [3] (setting [11]). Besides, the pest or weed control at 250 g/ha in test [4] (setting [12]) was found to be 90%; in test [4] (setting [13]) it was 80%. Also, the “Post-emergence herbicidal activity against wheat (percentage phytotoxicity), +CQC” value in test [5] was 10%. The percent phytotoxicity (crop damage) to wheat at 250 g/ha in test [5] came to 40%.

As to `Cc1cc(C)c(C2C(=O)CC(CCNS(=O)(=O)c3ccc(Cl)c(Cl)c3)C2=O)c(C)c1` (stereo not drawn) [Compound A78], the pest or weed control at 250 g/ha in test [1] (setting [6]) came out at 40%; in test [1] (setting [7]) it was 60%; in test [2] (setting [8]) it was 80%; in test [2] (setting [9]) it was 0%; in test [3] (setting [10]), 30%; in test [3] (setting [11]), 20%. The pest or weed control at 250 g/ha in test [4] (setting [12]) is 60%; in test [4] (setting [13]), 70%. Further, the “Post-emergence herbicidal activity against wheat (percentage phytotoxicity), +CQC” value in test [5] is listed as 0%. In addition, the percent phytotoxicity (crop damage) to wheat at 250 g/ha in test [5] worked out at 0%.

Consider `Cc1cc(C)c(C2C(=O)CC(CCNC(=O)NC(=O)c3ccccc3C)C2=O)c(C)c1` (stereo not drawn) [Compound A50], for which the pest or weed control at 250 g/ha in test [1] (setting [6]) stood at 100%; in test [1] (setting [7]), 100%; in test [2] (setting [8]), 90%; in test [2] (setting [9]), 80%; in test [3] (setting [10]), 80%; in test [3] (setting [11]) it was 90%. For the same compound, the values for the pest or weed control at 250 g/ha in test [4] (setting [12]) and in test [4] (setting [13]) were 100% and 90%, respectively. Also, the “Post-emergence herbicidal activity against wheat (percentage phytotoxicity), +CQC” value in test [5] is reported as 90%. Also, in test [5], the percent phytotoxicity (crop damage) to wheat at 250 g/ha came out at 90%.
